Consider 18 compounds from patent US4192871A, “Chemical compounds” (Glaxo Laboratories Limited, priority 1976, dated 1980).

A short description of data set [1]: dissolution of the 11β-aminoester salts in aqueous acid (Table 5 and Examples 101, 225-229). The class given is physicochemical. On the procedure:
(§1) A solution of the above free base (492 mg; 1 mmole) in ethanol (10 ml) was treated with a solution (10 ml) of M/10 citric acid in ethanol water (9:1) and the mixture evaporated in vacuo at low temperature to afford a froth.
(§2) Table 5 summarises the properties and preparation of salts of the invention by one of the following methods:
(§3) A. The 11β-aminoester (1 part) was added to a solution of the acid (1 molar part) in water and the mixture stirred or shaken until a clear solution was obtained. The solution was made up with water to the weight indicated, filtered through a membrane and the pH determined.
(§4) B. The 11β-aminoester (1 part) was added to a solution of the acid (1 molar part) in water and the mixture stirred or shaken. As free base remained undissolved, further acid was added and the mixture agitated again. The solution was made up with water to the weight indicated and any material which then remained undissolved was collected in a weighed funnel and the weight of free base dissolved calculated and the pH of the solution measured.
(§5) C. A mixture of the 11β-aminoester (1 part), a 0.1 M solution of the acid (1 molar part) and ethanol was evaporated in vacuo and dried to constant weight. The residue was dissolved in a little water and any material which then remained undissolved collected in a weighed funnel and the weight of free base dissolved calculated. The solution was made up with water to the weight indicated and its pH measured.
(§6) D. The 11β-aminoester (1 part) was added to a solution of the acid (1 molar part) in water and the mixture stirred or shaken. The solution was made up with water to the weight indicated. The material remaining undissolved was collected in a weighed funnel and the weight of free base dissolved calculated and the pH of the solution measured.
(§7) E. As in method C except that further acid was added to the residue after addition of the small amount of water.
The solid citric acid used was as its monohydrate.
(§8) Sodium iodide (0.250 g) and diethylamine (0.5 ml) were added to a solution of 11β-chloroacetoxy-2β-ethoxy-3α-hydroxy-D-homo-5α-pregnan-20-one (0.250 g) in acetone (10 ml) and the mixture was left at room temperature for 3 days during which time a white solid precipated. Water was added and the yellow solution was concentrated in vacuo whereupon crystallisation occurred. The needles were filtered off and washed well with acetone/water yielding the title compound (0.201 g), m.p. 160°-73°, [α]D +60.8°. The above base (0.101 g) was stirred with citric acid monohydrate (0.042 g) in water (9.5 ml) for 21 hours. The solution was made up to 10.1 g by weight. The solid remaining out of solution was filtered off, dried and weighed. The solution was passed through a millipore filter giving an aqueous solution of the title compound, concentration 9.75 mg/ml, pH 3.66.
The above base (0.096 g) was stirred in a solution of citric acid monohydrate (0.038 g) in water (8.5 ml) for 20 hours. A large proportion of the steroid remained out of solution. More citric acid (0.038 g) was added and the mixture stirred for a further 6 hours. The solution was made up to 9.6 g by weight and the solid remaining out of solution was filtered off, dried and weighed. The solution was passed through a millipore filter giving an aqueous solution of the title compound, concentration 9.5 mg/ml, pH 2.85.
To a solution of citric acid monohydrate (52.5 mg) in water (2 ml) was added the above free base (115 mg). More water (8 ml) was added and the mixture was stirred for 72 hrs. A small amount of steroid remained out of solution and more citric acid (52.5 mg) was added. Within 5 mins. a clear solution was obtained which was made up to 11.5 g with water and filtered through a millipore filter yielding an aqueous solution of the title citrate, concentration 10 mg/ml, pH 3.0.
The above free base (112 mg) was added to a solution of citric acid monohydrate (52.5 mg) in water (2 ml). More water (8 ml) was added and the mixture was swirled from time to time. […]

Another data set in a line: pH of the salt solutions. It counts as physicochemical. As for the experimental part: as §1, §2, §3, §4, §5, §6, §7
11β-N,N-Diethylaminoacetoxy-2β-ethoxy-3α-hydroxy-5α-pregnan-20-one (1.45 g) was agitated with citric acid monohydrate (621 mg) in 0.9% w/v sodium chloride solution (steriflex^(R)) (130 ml.) at 20° for 16.5 hours. The resulting solution was stirred at 21° and N/5 sodium hydroxide solution in steriflex^(R) (10.5 ml) was added dropwise during 30 minutes, raising the pH from 3.63 to 4.52. The solution was diluted to 162.5 g so that the concentration of steroid was 9 mg/ml. The solution of the citrate was filtered through a membrane and finally filtered into 8 sterile ampoules.
11β-(N-Butyl-N-ethylaminoacetoxy)-3α-hydroxy-5α-pregnan-20-one (1.80 g) was agitated with citric acid monohydrate (793 mg) in 0.9% w/v sodium chloride solution (steriflex^(R)) (160 ml) at 20° for 19.5 hours. The resulting solution was slightly cloudy. This solution was stirred at 21° and N/5 sodium hydroxide solution in steriflex^(R) (5.8 ml) was added dropwise during 15 minutes, raising the pH from 3.62 to 4.00. The solution was diluted to 201.2 g so that the concentration of steroid was 9 mg/ml. The cloudiness was removed by filtration through a membrane and the clear solution of the citrate was filtered into 8 sterile ampoules.
as §8, with “3.66. […]” for “3.66.”

Where [2] appears, read: method A: clear solution, 1 molar part acid, made up with water to WT. of solution 10 g, except Ex. 121 and 150: 12, 123: 12.3, 124: 7.5, 129: 10.3, 135 and 139: 8.95, 164: 10.35, 170: 10.4, 181: 10.04, 187: 9.5, 210: 10.2, 221: 15 g.
[3] abbreviates: aqueous solution of the salt, Table 5.
[4] abbreviates: method B: further acid added, undissolved material weighed, WT. of solution 10 g, except Ex. 130 and 141: 9.2, 142: 9.23, 143, 144, 189 and 199: 9.8, 149: 10.6, 153: 7.9, 162 and 188: 9.5, 163: 68, 166: 10.4, 168: 10.7, 169: 10.9, 183: 8.05, 184 and 201: 9.83, 185: 7.1, 186: 9.3, 192: 10.07, 193: 6.4, 195: 6.8, 196: 7, 197: 7.2, 200: 10.1, 206: 15 g.
The mark [5] stands for this setting: method C: ethanol evaporated, residue in water, undissolved material weighed, WT. of solution Ex. 118: 10, 120: 10.4, 148: 9.54, 152: 5.6, 154: 9.1, 155: 8.77, 156: 9.06, 157: 9.5, 158: 9.38, 159: 9.17, 179: 9.65, 180: 11.7, 182: 4.9, 202: 12.05, 213: 12, 214: 11.5, 215: 11.1, 216: 11.6, 217: 12.1 g.
Where [6] appears, read: method D: 1 molar part acid, undissolved material weighed, WT. of solution 10 g, except Ex. 136: 8.95, 140: 9.52, 165 and 167: 10.1, 190 and 198: 9.8, 191: 8.9, 194: 6.6, 204: 10.09, 219: 10.6 g.

Regarding `CCCCN(CC)CC(=O)O[C@H]1C[C@]2(C)[C@@H](C(C)=O)CC[C@H]2[C@@H]2CC[C@H]3C[C@H](O)[C@@H](OCC)C[C@]3(C)[C@H]21` [Example 150], the Dissolved aminoester in data set [1] (setting [2]) is listed as 120 mg. Besides, in “pH of the salt solutions” (setting [3]), the pH is on record as 3.35.

On to `CCCC(C)NCC(=O)O[C@H]1C[C@]2(C)[C@@H](C(C)=O)CC[C@H]2[C@@H]2CC[C@H]3C[C@H](O)CC[C@]3(C)[C@H]21` (stereo partly drawn) [Example 141], for which the Dissolved aminoester in data set [1] (setting [4]) is 77.3 mg. In addition, in the data set “pH of the salt solutions” (setting [3]), the pH is recorded as 2.89.

As to `CC(=O)[C@H]1CC[C@H]2[C@@H]3CC[C@H]4C[C@H](O)CC[C@]4(C)[C@H]3[C@@H](OC(=O)CN3CCCCC3C)C[C@]12C` (stereo partly drawn) [Example 148], the Dissolved aminoester in data set [1] (setting [5]) is 95.4 mg. Besides, the pH in “pH of the salt solutions” (setting [3]) turned out to be 3.55.

Turning to `C=CCN(C)CC(=O)O[C@H]1C[C@]2(C)[C@@H](C(C)=O)CC[C@H]2[C@@H]2CC[C@H]3C[C@H](O)CC[C@]3(C)[C@H]21` [Example 191], the Dissolved aminoester in data set [1] (setting [6]) is listed as 86.1 mg. The pH in “pH of the salt solutions” (setting [3]) came out at 3.20.

As for `CCN(CC(=O)O[C@H]1C[C@]2(C)[C@@H](C(C)=O)CC[C@H]2[C@@H]2CC[C@H]3C[C@H](O)CC[C@]3(C)[C@H]21)CC(C)C` [Example 195], the Dissolved aminoester in data set [1] (setting [4]) is recorded as 59 mg. In the data set “pH of the salt solutions” (setting [3]), the pH is on record as 2.98.

For `CCCC(C)N(C)CC(=O)O[C@H]1C[C@]2(C)[C@@H](C(C)=O)CC[C@H]2[C@@H]2CC[C@H]3C[C@H](O)CC[C@]3(C)[C@H]21` (stereo partly drawn) [Example 187], the Dissolved aminoester in data set [1] (setting [2]) was determined as 95 mg. Further, in “pH of the salt solutions” (setting [3]), the pH came out at 3.63.

`C=CCN(CC=C)CC(=O)O[C@H]1C[C@]2(C)[C@@H](C(C)=O)CC[C@H]2[C@@H]2CC[C@H]3C[C@H](O)CC[C@]3(C)[C@H]21` [Example 118]: in data set [1] (setting [5]), the Dissolved aminoester came to 38 mg. For the same compound, the pH in the data set “pH of the salt solutions” (setting [3]) turned out to be 2.55.

For the compound `CC(=O)[C@H]1CC[C@H]2[C@@H]3CC[C@H]4C[C@H](O)CC[C@]4(C)[C@H]3[C@@H](OC(=O)CNC(C)CC(C)C)C[C@]12C` (stereo partly drawn) [Example 140], the Dissolved aminoester in data set [1] (setting [6]) was found to be 80.7 mg. Further, the pH in “pH of the salt solutions” (setting [3]) was 3.59.

In the case of `CCCN(CCC)CC(=O)O[C@H]1C[C@]2(C)[C@@H](C(=O)CO)CC[C@H]2[C@@H]2CC[C@H]3C[C@H](O)CC[C@]3(C)[C@H]21` [Example 210], the Dissolved aminoester in data set [1] (setting [2]) turned out to be 100 mg. Further, in the data set “pH of the salt solutions” (setting [3]), the pH came out at 3.7.

Take `CCN(CC)CC(=O)O[C@H]1C[C@]2(C)[C@@H](C(C)=O)CC[C@H]2[C@@H]2CC[C@H]3C[C@](C)(O)CC[C@]3(C)[C@H]21` [Example 131]: the Dissolved aminoester in data set [1] (setting [2]) is reported as 100 mg. Besides, in the data set “pH of the salt solutions” (setting [3]), the pH is 3.55.

As for `CC(=O)[C@H]1CC[C@H]2[C@@H]3CC[C@H]4C[C@H](O)CC[C@]4(C)[C@H]3[C@@H](OC(=O)CN(C)C3CCCCC3)C[C@]12C` [Example 127], in data set [1] (setting [2]), the Dissolved aminoester was 100 mg. In the data set “pH of the salt solutions” (setting [3]), the pH is 3.62.

In the case of `CCCN(CCC)CC(=O)O[C@H]1C[C@]2(C)[C@@H](C(C)=O)CC[C@H]2[C@@H]2CC[C@H]3C[C@H](O)CC[C@]3(C)[C@H]21` [Example 217], the Dissolved aminoester in data set [1] (setting [5]) is 76 mg. Further, the pH in the data set “pH of the salt solutions” (setting [3]) is on record as 3.53.

As for `CCCO[C@H]1C[C@@]2(C)[C@@H](CC[C@@H]3[C@@H]2[C@@H](OC(=O)CN(CC)CC)C[C@]2(C)[C@@H](C(C)=O)CC[C@@H]32)C[C@@H]1O` [Example 122], the Dissolved aminoester in data set [1] (method A, 0.9% w/v saline in place of water, WT. of solution Ex. 122: 37.5 g, 222: 50 g) was 375 mg. Moreover, the pH in the data set “pH of the salt solutions” (solution of the salt in saline, before any adjustment) is given as 3.5.

As to `CCCCCN(C)CC(=O)O[C@H]1C[C@]2(C)[C@@H](C(C)=O)CC[C@H]2[C@@H]2CC[C@H]3C[C@H](O)CC[C@]3(C)[C@H]21` [Example 185], the Dissolved aminoester in data set [1] (setting [4]) turned out to be 65.3 mg. For the same compound, the pH in “pH of the salt solutions” (setting [3]) stood at 2.86.

As to `CC(=O)[C@H]1CC[C@H]2[C@@H]3CC[C@H]4C[C@](C)(O)CC[C@]4(C)[C@H]3[C@@H](OC(=O)CN3CCCCC3)C[C@]12C` [Example 133], the Dissolved aminoester in data set [1] (setting [2]) turned out to be 100 mg. In the data set “pH of the salt solutions” (setting [3]), the pH is 3.7.

On to `CC(=O)[C@H]1CC[C@H]2[C@@H]3CC[C@H]4C[C@H](O)CC[C@]4(C)[C@H]3[C@@H](OC(=O)CNC(C(C)C)C(C)C)C[C@]12C` [Example 144], for which the Dissolved aminoester in data set [1] (setting [4]) amounted to 61 mg. In addition, the pH in the data set “pH of the salt solutions” (setting [3]) is 2.79.

Consider `CCN(CC)CC(=O)O[C@H]1C[C@]2(C)[C@@H](C(C)=O)CC[C@H]2[C@@H]2CC[C@H]3C[C@H](O)C=C[C@]3(C)[C@H]21` [Example 211], for which, in data set [1] (setting [6]), the Dissolved aminoester came to 94 mg. Also, in “pH of the salt solutions” (setting [3]), the pH was 3.2.

In the case of `CC(=O)[C@H]1CC[C@H]2[C@@H]3CC[C@H]4C[C@H](O)[C@@H](Cl)C[C@]4(C)[C@H]3[C@@H](OC(=O)CN3CCC(C)CC3)C[C@]12C` [Example 203], the Dissolved aminoester in data set [1] (method E: as C with further acid, WT. of solution Ex. 160: 6.12, 161: 7.8, 203: 12.7, 212: 12.125, 220: 10 g) came to 127 mg. In addition, the pH in “pH of the salt solutions” (setting [3]) stood at 2.85.
